The test system of assay [1] is Escherichia coli. The assay is described as follows: Antibacterial activity against Escherichia coli C1541 expressing VIM-2 assessed as meropenem MIC at 10 ug/ml incubated for 16 to 18 hrs in presence of meropenem by two-fold serial dilution method. It is filed as functional. The note with it: dose 10 µg/ml, time 16-18 hrs.
For assay [2], the system named is Escherichia coli. The assay is described as follows: Antibacterial activity against Escherichia coli C1541 expressing IMP-1 assessed as meropenem MIC at 10 ug/ml incubated for 16 to 18 hrs in presence of meropenem by two-fold serial dilution method. Conditions: dose 10 µg/ml, time 16-18 hrs. It is filed as functional.
The target of assay [3] is Metallo-beta-lactamase type 2 (Bacteria, UniProt C7C422). Put plainly: Inhibition of NDM-1 (1 to 270 residues) (unknown origin) expressed in Escherichia coli Transetta (DE3) using FC5 as fluorescence substrate preincubated for 10 mins followed by substrate addition by microplate reader analysis.
Sequence of Metallo-beta-lactamase type 2 (C7C422 whole entry, the tested form may be a part): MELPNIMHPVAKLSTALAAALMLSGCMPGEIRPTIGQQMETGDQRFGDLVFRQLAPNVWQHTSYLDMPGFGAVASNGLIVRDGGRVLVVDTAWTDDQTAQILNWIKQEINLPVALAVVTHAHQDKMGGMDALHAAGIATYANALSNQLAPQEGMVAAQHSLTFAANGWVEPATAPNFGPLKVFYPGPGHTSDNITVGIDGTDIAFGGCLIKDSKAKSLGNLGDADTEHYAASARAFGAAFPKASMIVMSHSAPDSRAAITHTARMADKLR
The subject of assay [4] is Escherichia coli. Put plainly: Antibacterial activity against Escherichia coli C1542 expressing VIM-2 assessed as meropenem MIC at 10 ug/ml incubated for 16 to 18 hrs in presence of meropenem by two-fold serial dilution method. It is filed as functional. The note with it: dose 10 µg/ml, time 16-18 hrs.
The nature of assay [5]: Inhibition of Metallo-beta-lactamase IMP-1 (unknown origin) using FC5 as fluorescence substrate preincubated for 10 mins followed by substrate addition by microplate reader analysis.
The nature of assay [6]: Inhibition of Metallo-beta-lactamase VIM-1 (unknown origin) using FC5 as fluorescence substrate preincubated for 10 mins followed by substrate addition by microplate reader analysis.
Assay [7] is described as follows: Inhibition of N-terminal His-6 tagged VIM-2 (27 to 266 residues) (unknown origin) expressed in Escherichia coli Transetta (DE3) using FC5 as fluorescence substrate preincubated for 10 mins followed by substrate addition by microplate reader analysis. Details: species or system Bacteria.
Assay [8] in a line: Inhibition of Metallo-beta-lactamase VIM-5 (unknown origin) using FC5 as fluorescence substrate preincubated for 10 mins followed by substrate addition by microplate reader analysis.

Molecules are shown by their SMILES. Bounds are passed on as bounds.

The source of these data is ChEMBL document CHEMBL5360522, “Design, Synthesis, and Biological Evaluation of New 1H-Imidazole-2-Carboxylic Acid Derivatives as Metallo-β-Lactamase Inhibitors” (Bioorg Med Chem, 2022).

A word on the MIC: it is the lowest concentration that inhibits growth of the organism. A word on the IC50: it is the concentration that inhibits the measured activity by half. Lower therefore signals inhibition by little substance. In the case of `O=C(O)c1nccn1Cc1ccccc1`, the MIC in assay [1] came to 16 µg/mL; in assay [2], 8 µg/mL; in assay [4], 16 µg/mL. Moreover, the IC50 in assay [3] came to 63.5 µM; in assay [5], 32.1 µM; in assay [6], 4.14 µM; in assay [7], 0.48 µM; in assay [8] it was 1.55 µM.

As to `O=C(O)c1nccn1Cc1ccncc1`, the MIC is not above 0.25 µg/mL in assay [1], 8 µg/mL in assay [2] and not above 0.25 µg/mL in assay [4]. In addition, the IC50 in assay [3] is more than 300 µM; in assay [5] it was more than 300 µM; in assay [6], 29.5 µM; in assay [7] it was 0.56 µM; in assay [8], 5.78 µM.

Regarding `O=C(O)c1nccn1CCc1cccc2ccccc12`, the results for the MIC in assay [1], in assay [2] and in assay [4] were not above 0.25 µg/mL, 8 µg/mL and not above 0.25 µg/mL, respectively. Further, the IC50 amounted to 74.8 µM in assay [3]; 50.9 µM in assay [5]; 4.13 µM in assay [6]; 0.07 µM in assay [7]; 1.07 µM in assay [8].

Turning to `O=C(O)c1nccn1CCc1ccc2ccccc2c1`, the minimal inhibitory concentration (MIC) in assay [1] was 0.5 µg/mL; in assay [2], 8 µg/mL; in assay [4], not above 0.25 µg/mL. In addition, the IC50 is more than 100 µM in assay [3]; 46.8 µM in assay [5]; 7.06 µM in assay [6]; 0.023 µM in assay [7]; 0.14 µM in assay [8].

With `O=C(O)c1nccn1CCc1ccc(-c2cccs2)cc1`, the figures for the MIC in assay [1], in assay [2] and in assay [4] were not above 0.25 µg/mL, 8 µg/mL and not above 0.25 µg/mL, respectively. Besides, the IC50 in assay [3] stood at 126 µM; in assay [5], 64 µM; in assay [6] it was 3.98 µM; in assay [7] it was 0.018 µM; in assay [8], 0.018 µM.

As to `O=C(O)c1nccn1CCc1ccc([N+](=O)[O-])cc1`, the MIC in assay [1] is not above 0.25 µg/mL; in assay [2], 8 µg/mL; in assay [4] it was not above 0.25 µg/mL. Also, the IC50 was more than 100 µM in assay [3]; more than 100 µM in assay [5]; 4.84 µM in assay [6]; 0.04 µM in assay [7]; 0.15 µM in assay [8].

In the case of `O=C(O)c1nccn1C(C(=O)O)c1ccccc1` (centres undefined), the MIC in assay [1] came out at 16 µg/mL; in assay [2], 8 µg/mL; in assay [4], 16 µg/mL. In addition, the IC50 in assay [3] is more than 300 µM; in assay [5], 1.59 µM; in assay [6] it was more than 300 µM; in assay [7], 7.48 µM; in assay [8] it was 9.24 µM.

Consider `O=C(O)c1nccn1CCc1ccc(-c2ccccc2)cc1`, for which the MIC in assay [1] is 0.5 µg/mL; in assay [2] it was 8 µg/mL; in assay [4], not above 0.25 µg/mL. Also, the IC50 in assay [3] was found to be 25.4 µM; in assay [5] it was 21.4 µM; in assay [6], 2.37 µM; in assay [7], 0.06 µM; in assay [8], 0.18 µM.
